The values that follow come from patent US20250186403A1 (ARIZONA BOARD OF REGENTS ON BEHALF OF THE UNIVERSITY OF …, priority 2022, published 2025).

The subject of one experiment is Cne cells. As to the kind of experiment: Checkerboard assay with known antifungals. The experiment is classed as cell-based, Cryptococcus neoformans. The following applies: for MIC: Cryptococcus neoformans, read-out: MIC Alone. The procedure:
After adding Cne cells, the plates were incubated for 48 h. Well contents were mixed by pipette, and absorbance was read at 630 nm. […] Based on the FIC, the combinatorial effects are decided as in Table 2.

The target in experiment [1] is Split-NanoLuc-Prp8 intein protein (Cryptococcus gattii, UniProt E6R027). Kind of experiment: Split nanoluciferase-Prp8 intein splicing assay. The experiment is classed as biochemical. The note with it: 1 nM protein, 100 µM TCEP, 24 h; read-out: IC50, Prp8-NanoBit splicing.
Procedure: TCEP is added to a final concentration of 100 µM and incubated for 24 h. The substrate Nano-Glo luciferase (Promega) was added, and the resulting luminescence was read. IC50 was calculated using GraphPad prism.
For the split nanoluciferase-Prp8 intein, in order to block the free cysteine residues, 5,5′-dithiobis-(2-nitrobenzoic) acid (DTNB) was added to 1:10 molar ratio and incubated at 4° C. for 5 min and dialyzed in 20 mM Tris, 150 mM NaCl, pH 9.0 and stored at −80° C. till further use.
The protein was diluted into 2 nM in assay buffer 20 mM tris, 150 mM NaCl with 0.1% BSA, 2 mM EDTA), and 80 μl was added to each well of 96 well plates (white, opaque). […] The plates were incubated at RT for 30 min, and 20 μl of TCEP was added to a final concentration of 100 µM. The plates were sealed to prevent evaporation. After incubating for 24 h at RT, 25 μl of the diluted (1:10,000 in assay buffer) diluted nanoluc substrate furimazine (Promega) was added. The emitted luminescence was quantified using the EnVision luminescence reader (Synergyll, Biotech). The IC50 was calculated using the GraphPad prism version 9.
[2] abbreviates: single drug, ≥90% reduction of absorbance at 630 nm, 48 h.

Split-NanoLuc-Prp8 intein protein, sequence (E6R027 entry or part of it): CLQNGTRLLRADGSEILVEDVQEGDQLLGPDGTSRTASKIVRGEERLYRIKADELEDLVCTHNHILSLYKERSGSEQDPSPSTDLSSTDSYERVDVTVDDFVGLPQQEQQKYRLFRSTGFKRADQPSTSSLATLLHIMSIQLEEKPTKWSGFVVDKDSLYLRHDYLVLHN

With `Nc1nc(=O)[nH]cc1F` [5-Fluorocytosine], the MIC with Cne cells (setting [2]) is 4.13 µg/mL. The “MIC Comb” value in the experiment on Cne cells (combination CMN + 5-Fluorocytosine, well D2) came to 2.06 µg/mL.

On to `N.N.[Cl][Pt][Cl]` [cisplatin], for which the IC50 in experiment [1] amounted to 1.41 µM.

Consider `C[C@@H](c1ncncc1F)[C@](O)(Cn1cncn1)c1ccc(F)cc1F` [Voriconazole], for which the MIC in the experiment on Cne cells (setting [2]) was 0.05 µg/mL. Also, the “MIC Comb” value with Cne cells (combination CMN + Voriconazole, well D4) was 0.05 µg/mL.

As for `C[C@@H]1[C@H](O)[C@@H](C)/C=C/C=C/C=C/C=C/C=C/C=C/C=C/[C@H](O[C@@H]2O[C@H](C)[C@@H](O)[C@H](N)[C@@H]2O)C[C@@H]2O[C@](O)(C[C@@H](O)C[C@@H](O)[C@H](O)CC[C@@H](O)C[C@@H](O)CC(=O)O[C@H]1C)C[C@H](O)[C@H]2C(=O)O` [Amphotericin B], in the experiment with Cne cells (combination CMN + Amphotericin B, well E6), the “MIC Comb” value was found to be 0.14 µg/mL. In the experiment on Cne cells (setting [2]), the “MIC Alone” value came out at 0.6 µg/mL.

For `CCC(C)n1ncn(-c2ccc(N3CCN(c4ccc(OCC5COC(Cn6cncn6)(c6ccc(Cl)cc6Cl)O5)cc4)CC3)cc2)c1=O` (stereo not drawn) [Itraconazole], the MIC in the experiment on Cne cells (setting [2]) is 0.22 µg/mL. In addition, the “MIC Comb” value in the experiment with Cne cells (combination CMN + Itraconazole, well E4) was found to be 0.22 µg/mL.
